Data from patent publication US6914045B2, “Glycopeptide antibiotics” (Wyeth Holdings Corporation, priority 2001, dated 2005).
≈ marks a conversion by molar mass, not a printed value.

Key:
Escherichia coli = assay: in vitro antibacterial evaluation, MIC by broth dilution; assay type: cell-based; details: 18 hours at 35° C.
[1] = clinical pathology (serum clinical chemistry) in mice; assay type: in vivo; details: CD-1 mice, 20 mg/kg intravenously daily for 9 days, sera day 10
Description: 20-day-old CD-1 mice were divided into a vehicle control group (5 mice) and a treatment group (5 mice). Samples of glycopeptide antibiotics were administered at 20 mg/kg intravenously daily for 9 days.

Staphylococcus sp. = assay: in vitro antibacterial evaluation, MIC by broth dilution; assay type: cell-based; details: broth dilution, 18 hours at 35° C.
Summary of the method: (§1)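 Following National Committee for Clinical Laboratory Standards recommendations (M7-A2), susceptibility was measured by dilution in Muller-Hinton II […]. Bacteria were seeded at 5×10^5 CFU/mL against compound concentrations from 64 down to 0.06 μg/mL.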

Streptococcus sp. = assay: as above; assay type: cell-based; details: broth dilution, 18 hours at 35° C.
Summary of the method: as §1

Enterococcus sp. = assay: as above; assay type: cell-based; details: broth dilution, 18 hours at 35° C.
Summary of the method: as §1

[2] = system: Staphylococcus aureus-SMITH (GC 4543); assay: acute lethal infection in mice; assay type: in vivo; details: acute lethal infection, female CD-1 mice, intraperitoneal challenge, intravenous 30 min. after infection, 7 day survival
Summary of the method: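 Protocol: bacteria suspended in trypticase soy broth or hog gastric mucin injected ip into female CD-1 mice at a level killing untreated controls in 24-48 hr; compound given iv in saline or 5% dextrose 30 min post-challenge; five mice per dose; ED50 derived from pooled 7 day survival of three runs.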

[3] = anatomic pathology (histopathology of heart and kidney) in mice; assay type: in vivo; details: CD-1 mice, 20 mg/kg intravenously daily for 9 days, necropsy day 10, microscopic histopathology
Description: Samples of tissues from necropsied mice were formalin-fixed, paraffin-embedded, sectioned, stained with hematoxylin and eosin, and examined microscopically. Histopathologic findings were recorded. These findings were subjectively graded on a scale corresponding to slight, mild, moderate, marked and severe as compared to untreated controls.

Compound: COc1ccc2cc(COC3C(CO)OC(OC4C(CO)OC(Oc5ccc(CC6NC(=O)C(C(C)c7ccccc7)NC(=O)CNC(=O)C(CO)NC(=O)C(CC7CNC(=N)N7C7OC(CO)C(O)C(O)C7O)NC(=O)C(CC7CNC(=N)N7)NC6=O)cc5)C(O)C4O)C(O)C3O)ccc2c1 (stereo not drawn) [Example 245a, Cyclo[3-(2-iminoimidazolidin-4-yl)alanyl-3-(3-hexopyranosyl-2-iminoimidazolidin-4-yl)-alanylserylglycyl-β-methylphenylalanyl-O-[4-O-[4-O-[(6-methoxy-2-naphthyl)methyl]-hexopyranosyl]hexopyranosyl]tyrosyl]]
- MIC Escherichia coli (ATCC 25922) (Escherichia coli): 32 µg/mL (≈ 22.3 µM)
- MIC Escherichia coli (GC 4559) (Escherichia coli): 32 µg/mL (≈ 22.3 µM)
- MIC Escherichia coli (GC 4560) (Escherichia coli): 2 µg/mL (≈ 1.4 µM)
- Clinical Chemistry (Day 10) % of Control, BUN [1]: +212%
- Clinical Chemistry (Day 10) % of Control, Creatinine [1]: +133%
- MIC Coagulase Negative Staphylococcus (GC 4547) (Staphylococcus sp.): 2 µg/mL (≈ 1.4 µM)
- MIC Coagulase Negative Staphylococcus (GC 4548) (Staphylococcus sp.): 1 µg/mL (≈ 0.698 µM)
- MIC Coagulase Negative Staphylococcus (GC 4549) (Staphylococcus sp.): 0.5 µg/mL (≈ 0.349 µM)
- MIC Coagulase Negative Staphylococcus (GC 4551) (Staphylococcus sp.): 2 µg/mL (≈ 1.4 µM)
- MIC Coagulase Negative Staphylococcus (GC 6257) (Staphylococcus sp.): 1 µg/mL (≈ 0.698 µM)
- MIC Staphylococcus aureus (ATCC 29213) (Staphylococcus sp.): 2 µg/mL (≈ 1.4 µM)
- MIC Staphylococcus aureus (GC 1131) (Staphylococcus sp.): 4 µg/mL (≈ 2.79 µM)
- MIC Staphylococcus aureus (GC 3051) (Staphylococcus sp.): 2 µg/mL (≈ 1.4 µM)
- MIC Staphylococcus aureus (GC 3053) (Staphylococcus sp.): 2 µg/mL (≈ 1.4 µM)
- MIC Staphylococcus aureus (GC 4541) (Staphylococcus sp.): 2 µg/mL (≈ 1.4 µM)
- MIC Staphylococcus aureus (GC 4542) (Staphylococcus sp.): 2 µg/mL (≈ 1.4 µM)
- MIC Staphylococcus aureus (GC 4544) (Staphylococcus sp.): 2 µg/mL (≈ 1.4 µM)
- MIC Staphylococcus aureus (GC 4545) (Staphylococcus sp.): 2 µg/mL (≈ 1.4 µM)
- MIC Staphylococcus aureus-SMITH (GC 4543) (Staphylococcus sp.): 2 µg/mL (≈ 1.4 µM)
- MIC Staphylococcus haemolyticus (GC 4546) (Staphylococcus sp.): 1 µg/mL (≈ 0.698 µM)
- MIC Staphylococcus aureus (ATCC 29213) (Staphylococcus sp.; strain ATCC 29213): 2 µg/mL (≈ 1.4 µM)
- MIC Staphylococcus aureus (GC 1131) (Staphylococcus sp.; strain GC 1131): 4 µg/mL (≈ 2.79 µM)
- MIC Staphylococcus aureus (GC 3051) (Staphylococcus sp.; strain GC 3051): 2 µg/mL (≈ 1.4 µM)
- MIC Staphylococcus aureus (GC 3053) (Staphylococcus sp.; strain GC 3053): 2 µg/mL (≈ 1.4 µM)
- MIC Staphylococcus aureus (GC 4541) (Staphylococcus sp.; strain GC 4541): 2 µg/mL (≈ 1.4 µM)
- MIC Staphylococcus aureus (GC 4542) (Staphylococcus sp.; strain GC 4542): 2 µg/mL (≈ 1.4 µM)
- MIC Staphylococcus aureus-SMITH (GC 4543) (Staphylococcus sp.; strain GC 4543): 2 µg/mL (≈ 1.4 µM)
- MIC Staphylococcus aureus (GC 4544) (Staphylococcus sp.; strain GC 4544): 2 µg/mL (≈ 1.4 µM)
- MIC Staphylococcus aureus (GC 4545) (Staphylococcus sp.; strain GC 4545): 2 µg/mL (≈ 1.4 µM)
- MIC Staphylococcus haemolyticus (GC 4546) (Staphylococcus sp.; strain GC 4546): 1 µg/mL (≈ 0.698 µM)
- MIC Coagulase Negative Staphylococcus (GC 4547) (Staphylococcus sp.; strain GC 4547): 2 µg/mL (≈ 1.4 µM)
- MIC Coagulase Negative Staphylococcus (GC 4548) (Staphylococcus sp.; strain GC 4548): 1 µg/mL (≈ 0.698 µM)
- MIC Coagulase Negative Staphylococcus (GC 4549) (Staphylococcus sp.; strain GC 4549): 0.5 µg/mL (≈ 0.349 µM)
- MIC Coagulase Negative Staphylococcus (GC 4551) (Staphylococcus sp.; strain GC 4551): 2 µg/mL (≈ 1.4 µM)
- MIC Coagulase Negative Staphylococcus (GC 6257) (Staphylococcus sp.; strain GC 6257): 1 µg/mL (≈ 0.698 µM)
- MIC Streptococcus agalactiae (GC 4564) (Streptococcus sp.): 1 µg/mL (≈ 0.698 µM)
- MIC Streptococcus pneumoniae (ATCC 6301) (Streptococcus sp.): 0.5 µg/mL (≈ 0.349 µM)
- MIC Streptococcus pneumoniae (GC 1894) (Streptococcus sp.): <0.12 µg/mL
- MIC Streptococcus pneumoniae (GC 4565) (Streptococcus sp.): 1 µg/mL (≈ 0.698 µM)
- MIC Streptococcus pyogenes (GC 4563) (Streptococcus sp.): 1 µg/mL (≈ 0.698 µM)
- MIC Streptococcus pneumoniae (ATCC 6301) (Streptococcus sp.; inoculum 5×10^5 CFU/mL, strain ATCC 6301): 0.5 µg/mL (≈ 0.349 µM)
- MIC Streptococcus pneumoniae (GC 1894) (Streptococcus sp.; inoculum 5×10^5 CFU/mL, strain GC 1894): <0.12 µg/mL
- MIC Streptococcus pyogenes (GC 4563) (Streptococcus sp.; inoculum 5×10^5 CFU/mL, strain GC 4563): 1 µg/mL (≈ 0.698 µM)
- MIC Streptococcus agalactiae (GC 4564) (Streptococcus sp.; inoculum 5×10^5 CFU/mL, strain GC 4564): 1 µg/mL (≈ 0.698 µM)
- MIC Streptococcus pneumoniae (GC 4565) (Streptococcus sp.; inoculum 5×10^5 CFU/mL, strain GC 4565): 1 µg/mL (≈ 0.698 µM)
- MIC Enterococcus avium (GC 4558) (Enterococcus sp.): 4 µg/mL (≈ 2.79 µM)
- MIC Enterococcus faecalis (ATCC 29212) (Enterococcus sp.): 8 µg/mL (≈ 5.58 µM)
- MIC Enterococcus faecalis (GC 2242) (Enterococcus sp.): 4 µg/mL (≈ 2.79 µM)
- MIC Enterococcus faecalis (GC 2691) (Enterococcus sp.): 8 µg/mL (≈ 5.58 µM)
- MIC Enterococcus faecalis (GC 3059) (Enterococcus sp.): 4 µg/mL (≈ 2.79 µM)
- MIC Enterococcus faecalis (GC 4552) (Enterococcus sp.): 8 µg/mL (≈ 5.58 µM)
- MIC Enterococcus faecalis (GC 4553) (Enterococcus sp.): 4 µg/mL (≈ 2.79 µM)
- MIC Enterococcus faecalis (GC 4554) (Enterococcus sp.): 8 µg/mL (≈ 5.58 µM)
- MIC Enterococcus faecalis (GC 6189) (Enterococcus sp.): 8 µg/mL (≈ 5.58 µM)
- MIC Enterococcus faecium (GC 2243) (Enterococcus sp.): 4 µg/mL (≈ 2.79 µM)
- MIC Enterococcus faecium (GC 4556) (Enterococcus sp.): 4 µg/mL (≈ 2.79 µM)
- MIC Enterococcus faecium (GC 4557) (Enterococcus sp.): 2 µg/mL (≈ 1.4 µM)
- MIC Enterococcus faecalis (ATCC 29212) (Enterococcus sp.; strain ATCC 29212): 8 µg/mL (≈ 5.58 µM)
- MIC Enterococcus faecium (GC 2243) (Enterococcus sp.; strain GC 2243): 4 µg/mL (≈ 2.79 µM)
- MIC Enterococcus faecalis (GC 4552) (Enterococcus sp.; strain GC 4552): 8 µg/mL (≈ 5.58 µM)
- MIC Enterococcus faecalis (GC 4553) (Enterococcus sp.; strain GC 4553): 4 µg/mL (≈ 2.79 µM)
- MIC Enterococcus faecalis (GC 4554) (Enterococcus sp.; strain GC 4554): 8 µg/mL (≈ 5.58 µM)
- MIC Enterococcus faecium (GC 4556) (Enterococcus sp.; strain GC 4556): 4 µg/mL (≈ 2.79 µM)
- MIC Enterococcus faecium (GC 4557) (Enterococcus sp.; strain GC 4557): 2 µg/mL (≈ 1.4 µM)
- MIC Enterococcus avium (GC 4558) (Enterococcus sp.; strain GC 4558): 4 µg/mL (≈ 2.79 µM)
- MIC Enterococcus faecalis (GC 6189) (Enterococcus sp.; strain GC 6189): 8 µg/mL (≈ 5.58 µM)
- MIC Enterococcus faecalis (GC 2242) (Enterococcus sp.; inoculum 5×10^5 CFU/mL, strain GC 2242): 4 µg/mL (≈ 2.79 µM)
- MIC Enterococcus faecalis (GC 2691) (Enterococcus sp.; inoculum 5×10^5 CFU/mL, strain GC 2691): 8 µg/mL (≈ 5.58 µM)
- MIC Enterococcus faecalis (GC 3059) (Enterococcus sp.; inoculum 5×10^5 CFU/mL, strain GC 3059): 4 µg/mL (≈ 2.79 µM)
- median effective dose (ED50), Staphylococcus aureus-SMITH (GC 4543) [2]: 1 mg/kg
- Anatomical Pathology (Day 10), Heart [3]: +
- Anatomical Pathology (Day 10), Kidney [3]: +++
